Source: US20260265724A1, “BIOSENSOR COMPRISING A MODIFIED BETA-LACTAMASE AND USES THEREOF” (priority 2022, published 2026)

Tests used:
F70Cf [1] = molecular target: T1, F70Cf (Klebsiella pneumoniae, UniProt C7C422, F70C); assay: Native ESI-MS binding study of F70Cf with inhibitors; details: 20 mM ammonium acetate with 50 μM ZnCl2, FIGS. 9A-9F
T1 construct: made in house; host or cells: E. coli BL21 (DE3), pET-3k vector; labelled with F5M after purification
Procedure: To further verify that F70Cf can bind to these non-β-lactam inhibitors non-covalently, native ESI-MS measurements were performed. […] Prior to ESI-MS analysis, protein was buffer-exchanged into 20 mM ammonium acetate with 50 μM ZnCl2 buffer with ultra-filtration devices. Equal volumes of F70Cf and inhibitors were mixed in a molar ratio of 1:20 for 10 minutes, and the mixture was directly loaded into metal-coated glass capillaries, which were subsequently mounted onto the nano-ESI source for MS analysis […].

F70Cf [2] = molecular target: T1, F70Cf; assay: Fluorescence microplate reader measurements of F70Cf; assay type: binding; details: for Initial increase in fluorescence signal, microplate reader: mole ratio 1:1500, FIGS. 8A-8D; for Fluorescence signal of F70Cf as a function of time, microplate reader: mole ratio of F70Cf to test substance 1:1500, FIGS. 6A-6B, 8E
Procedure: To investigate compatibility of F70Cf with a high-throughput screening platform, a F70Cf was initially added to a fluorescence microplate reader followed by injection of 1:1500 cefotaxime and cephalothin, respectively.
For high-throughput inhibitor screening experiments, the fluorescence signal changes were recorded by adding 10 μL of each inhibitor (final concentration: 200 μM) automatically into 250 μL of F70Cf (final concentration: 0.13 μM) in a 96-well plate containing 50 μM ZnCl2, 20 mM, pH7.0, Tris-HCl buffer, using Thermo Scientific Varioskan LUX Multimode Microplate Reader (Thermo Fisher Scientific) (n=3). The excitation and emission wavelengths were 494 and 520 nm, respectively. The injection of each inhibitor started at 0.5 min.

NDM-1 = NDM-1 (Klebsiella pneumoniae, UniProt C7C422); details: previous studies (Brem et al., 2016; Klingler et al., 2015; Ma et al., 2019); cited from earlier work
F70Cf [3] = molecular target: T1, F70Cf; assay: Time-course fluorescence measurements of F70Cf on a spectrofluorometer; assay type: binding; details: for Fluorescence signal of F70Cf with inhibitor: F70Cf 0.13 μM, inhibitor 0, 2, 20 and 200 μM, excitation 494 nm, emission 518 nm, L-arginine 200 μM (1:1500) as control, FIGS. 7A-7E; for Initial phase of fluorescence increase (speed of binding to F70Cf): spectrophotometer, FIGS. 7A-7D; for Fluorescence signal of F70Cf with β-lactam antibiotic as a function of time: spectrofluorometer, mole ratios 1:150 and 1:1500, FIGS. 5A-5B
From the text: To investigate fluorescence response of the proposed NDM-1 mutant to two existing β-lactam antibiotics, fluorescein-labelled NDM-1 mutant, F70Cf, was mixed with cefotaxime and cephalothin in two concentrations (in mole ratios of 1:150 and 1:1500) and compared the fluorescence intensity level of these two samples with a blank (i.e., no cefotaxime nor cephalothin, or mole ratio=1:0) under a spectrofluorometer. […] It has been shown in other previous studies (Chan et al., 2008; Tsang et al., 2011) that binding of β-lactam antibiotics to the enzyme's active site induces the […] to depart from the active site, so that the fluorescein label (F5M) becomes well exposed to external aqueous environment and/or stays away from amino acid quenchers in the active site. When the […] is hydrolyzed to the acid product, the fluorescein label (F5M) returns to the active site, thus restoring its weak fluorescence signal.
Time-course fluorescence measurements were recorded at 518 nm by exciting the F70Cf (final concentration: 0.13 μM) at 494 nm with different concentrations of the inhibitors (0, 2, 20 and 200 μM, respectively) in labelling buffer (50 μM ZnCl2, 20 mM Tris-HCl buffer, pH 7.0) in a quartz cuvette. Triplicate measurements were performed for each inhibitor. L-arginine in 200 μM was also used as a control.

[4] = molecular target: T2, F70Cf (fluorescein-labelled NDM-1 mutant) (Klebsiella pneumoniae, UniProt C7C422, F70C); assay: Specific activity against antibiotics by ultraviolet-visible spectroscopy (antibiotic hydrolysis); assay type: biochemical; details: enzyme 0.001 mg/ml, 100 μM antibiotic, 50 μM ZnCl2, 20 mM Tris-HCl buffer, pH 7.0
T2 construct: made in house; host or cells: E. coli BL21 (DE3), pET-3k vector; labelled with F5M after purification
Procedure: (§1) Specific activity (U/mg) of wild-type NDM-1, F70C and F70Cf against different antibiotics were measured by ultraviolet-visible spectroscopy. Enzymes (final concentration: 0.001 mg/ml) were incubated with 100 μM of different antibiotics: cefotaxime, ceftazidime, penicillin G, ampicillin and meropenem, in 500 μL buffer (50 μM ZnCl2, 20 mM Tris-HCl buffer, pH 7.0). Antibiotic hydrolysis was monitored at 264 nm (cefotaxime), 260 nm (ceftazidime), 240 nm (penicillin G), 235 nm (ampicillin) and 297 nm (meropenem). The molar extinction coefficients were used as follows: cefotaxime=−7250 M^−1 cm^−1, ceftazidime=−8660 M^−1 cm^−1, penicillin G=−560 M^−1 cm^−1, ampicillin=900 M^−1 cm^−1 and meropenem −10940 M^−1 cm^−1.

Wild-type NDM-1 = molecular target: T3, Wild-type NDM-1 (Klebsiella pneumoniae, UniProt C7C422); assay: as above; assay type: biochemical; details: enzyme 0.001 mg/ml, 100 μM antibiotic, 50 μM ZnCl2, 20 mM Tris-HCl buffer, pH 7.0
T3 construct: made in house; host or cells: E. coli BL21 (DE3), pET-3k vector
Procedure: as §1

F70C (NDM-1 mutant) = molecular target: T4, F70C (NDM-1 mutant) (Klebsiella pneumoniae, UniProt C7C422, F70C); assay: as above; assay type: biochemical; details: enzyme 0.001 mg/ml, 100 μM antibiotic, 50 μM ZnCl2, 20 mM Tris-HCl buffer, pH 7.0
T4 construct: made in house; host or cells: E. coli BL21 (DE3), pET-3k vector
Procedure: as §1

T4 sequence (C7C422 29-270 F70C): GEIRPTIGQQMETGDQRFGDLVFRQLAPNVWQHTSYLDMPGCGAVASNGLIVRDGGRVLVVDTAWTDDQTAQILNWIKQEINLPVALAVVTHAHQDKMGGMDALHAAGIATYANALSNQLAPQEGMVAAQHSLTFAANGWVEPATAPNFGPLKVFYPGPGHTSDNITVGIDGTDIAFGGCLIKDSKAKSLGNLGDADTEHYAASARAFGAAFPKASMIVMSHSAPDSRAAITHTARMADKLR
T2 sequence (C7C422 29-270 F70C): as above
T1 sequence (C7C422 29-270 F70C): as above
T3 sequence (C7C422 29-270 limits assumed): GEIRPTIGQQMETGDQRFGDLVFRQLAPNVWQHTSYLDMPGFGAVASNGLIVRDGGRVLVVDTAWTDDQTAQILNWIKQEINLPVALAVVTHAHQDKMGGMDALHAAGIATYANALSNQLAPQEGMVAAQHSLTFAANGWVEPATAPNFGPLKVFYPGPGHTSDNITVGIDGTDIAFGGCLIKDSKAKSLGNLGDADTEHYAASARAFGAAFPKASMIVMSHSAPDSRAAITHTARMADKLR

Molecule	Formation of non-covalent complex with F70Cf (F70Cf [1])	Initial increase in fluorescence signal, microplate reader (F70Cf [2])	IC50 (NDM-1) [nM]	Fluorescence signal of F70Cf with inhibitor (F70Cf [3])	Initial phase of fluorescence increase (speed of binding to F70Cf) (F70Cf [3])	Specific activity, F70Cf [4] [U/mg]	Specific activity, Wild-type NDM-1 (Wild-type NDM-1) [U/mg]	Specific activity, F70C (F70C (NDM-1 mutant)) [U/mg]	Fluorescence signal of F70Cf as a function of time, microplate reader (F70Cf [2])	Fluorescence signal of F70Cf with β-lactam antibiotic as a function of time (F70Cf [3])
O=C(O)CNC(=O)C(CS)Cc1ccccc1 (racemic) [DL-thiorphan]	can form non-covalent complexes with F70Cf in a significant population	much faster than that of L-captopril	1800	increased with an increasing dose of the inhibitors	bind much faster to F70Cf as compared L-captopril					
CC1(C)S[C@@H]2[C@H](NC(=O)[C@H](N)c3ccccc3)C(=O)N2[C@H]1C(=O)O [Ampicillin, ampicillin]						779 ± 114	16349 ± 880	13880 ± 1406		
CO/N=C(\C(=O)N[C@@H]1C(=O)N2C(C(=O)O)=C(COC(C)=O)CS[C@H]12)c1csc(N)n1 [Cefotaxime, cefotaxime]						1529 ± 121	8166 ± 937	8195 ± 1960	stronger fluorescence signals and then declining fluorescence signals as a function of time	fluorescence signals increased and then decreased gradually as a function of time
CC(C)(O/N=C(\C(=O)N[C@@H]1C(=O)N2C(C(=O)[O-])=C(C[n+]3ccccc3)CS[C@H]12)c1csc(N)n1)C(=O)O [Ceftazidime, ceftazidime]						308 ± 33	3446 ± 150	3835 ± 216		
N=C(N)NCCC[C@H](N)C(=O)O [L-arginine]	virtually cannot form a F70Cf-L-arginine complex in a significant population			no fluorescence signal					no fluorescence signals	
C[C@@H](O)[C@H]1C(=O)N2C(C(=O)O)=C(S[C@@H]3CN[C@H](C(=O)N(C)C)C3)[C@H](C)[C@H]12 [Meropenem, meropenem]						506 ± 30	6834 ± 1582	5863 ± 291		
CC1(C)S[C@@H]2[C@H](NC(=O)Cc3ccccc3)C(=O)N2[C@H]1C(=O)O [Penicillin G, penicillin G]						10720 ± 330	54764 ± 3013	60854 ± 1436		
CC(=O)OCC1=C(C(=O)O)N2C(=O)[C@@H](NC(=O)Cc3cccs3)[C@H]2SC1 [cephalothin]									stronger fluorescence signals and then declining fluorescence signals as a function of time	fluorescence signals increased and then decreased gradually as a function of time
peptide with an amino acid sequence of GSKKPVPIIYCNRRTGKCQRM (SEQ ID NO: 9), from GL Biochem [thanatin]	can form non-covalent complexes with F70Cf in a significant population	much faster than that of L-captopril	3210	increased with an increasing dose of the inhibitors	bind much faster to F70Cf as compared L-captopril					
